Like-named read-outs stand apart in the source and are kept apart here.
Assays:
[1] = test system: HIV-1 strains (SKI, RF, DV, IIIB, ADP/141); assay: microbe, parasite or virus in culture; format: cell-based; details: Human immunodeficiency virus 1, IIIB
[2] = test system: HIV-1 laboratory isolates; assay: HIV-1 infection of PBMCs (p24); format: cell-based; details: read-out: IC50 viral production
[3] = test system: HIV-1 clinical isolates; assay: microbe, parasite or virus in culture; format: cell-based
[4] = test system: HIV-1IIIB; assay: Time of drug addition study, MT-4 cells (p24); format: cell-based; details: 100-fold IC50, MOI 1, p24 at 29 hour
[5] = test system: HIV-1 infected PBMCs

Cc1cn([C@H]2C[C@H](N=[N+]=[N-])[C@@H](CO)O2)c(=O)[nH]c1=O [AZT, 3′-azido-3′-deoxythymidine]
IC50 ([1]; CEM-SS, read-out: Antiviral Assay IC50 IIIB, HIV-1 IIIB, CEM-SS or MT4): 2 nM | IC50 ([1]; CEM-SS, read-out: Antiviral Assay IC50 RF, HIV-1 RF, CEM-SS or MT4): 7 nM | IC50 ([1]; CEM-SS, read-out: Antiviral Assay IC50 SKI, HIV-1 SKI, CEM-SS or MT4): 22 nM | IC50 ([1]; CEM-SS, read-out: IC50 (cpe assay), RF (CEM-SS), MOI 0.01): 10 nM | IC50 ([1]; CEM-SS, read-out: IC50 (cpe assay), RF (CEM-SS), MOI 0.02): 20 nM | IC50 ([1]; CEM-SS, read-out: IC50 (cpe assay), RF (CEM-SS), MOI 0.04): 70 nM | IC50 ([1]; CEM-SS, read-out: IC50 (cpe assay), RF (CEM-SS), MOI 0.64): > 10000 nM | IC50 ([1]; CEM-SS, read-out: IC50 (cpe assay), RF (CEM-SS), MOI 1.28): > 10000 nM | IC50 ([1]; CEM-SS, read-out: IC50 virus production, HIV-1 IIIB, CEM-SS): 2 ± 0.3 nM | IC50 ([1]; CEM-SS, read-out: IC50 virus production, HIV-1 RF, CEM-SS, MOI 0.01): 7 nM | IC50 ([1]; CEM-SS, read-out: IC50 virus production, HIV-1 SKI, CEM-SS, MOI 0.01): 22 ± 0.1 nM | IC90 ([1]; CEM-SS, read-out: IC90 (cpe assay), RF (CEM-SS), MOI 0.16): > 10000 nM | IC90 ([1]; CEM-SS, read-out: IC90 (cpe assay), RF (CEM-SS), MOI 0.32): > 10000 nM | IC90 ([1]; CEM-SS, read-out: IC90 (cpe assay), RF (CEM-SS), MOI 0.64): > 10000 nM | IC90 ([1]; CEM-SS, read-out: IC90 (cpe assay), RF (CEM-SS), MOI 1.28): > 10000 nM | IC50 ([1]; SUP-T1, read-out: IC50 virus production, HIV-1 DV, SUP T1): 30 ± 5 nM | IC50 ([1]; SUP-T1, read-out: IC50 virus production, HIV-1 IIIB, SUP T1): 30 ± 6 nM | IC50 ([1]; read-out: IC50 (cpe assay)): 37 nM | IC50 ([1]; read-out: IC50 (cpe assay), IIIB (MT4), MOI 0.01): 10 nM | IC50 ([1]; read-out: IC50 virus production, HIV-1 IIIB, AA5): < 3 nM | IC50 ([1]; read-out: IC50 virus production, HIV-1 IIIB, MT2): 10 ± 4 nM | IC50 ([1]; read-out: IC50 virus production, HIV-1 RF, MT2): 30 ± 5 nM | IC90 ([1]; read-out: IC90 (cpe assay), IIIB (MT4), MOI 0.3): 3300 nM | IC50 ([2]; Human immunodeficiency virus 1, IIIB, PBMC, HIV-1 IIIB): 3 ± 0.2 nM | IC50 ([2]; Human immunodeficiency virus 1, PBMC, HIV-1 JRCSF): 2.5 ± 1 nM | IC50 ([2]; Human immunodeficiency virus 1, PBMC, HIV-1 MN): 53 ± 1 nM | IC50 ([2]; Human immunodeficiency virus 1, PBMC, HIV-1 RF): 272 ± 3 nM | IC50 ([3]; Human immunodeficiency virus 1, read-out: IC50 values over the clinical isolates tested in PBLs, range over isolates): 10 to 1650 nM | IC50 ([3]; Human immunodeficiency virus 1, read-out: IC50 viral production, PBLs, clinical isolate 942716): 2 ± 3 nM | IC50 ([3]; Human immunodeficiency virus 1, read-out: IC50 viral production, PBLs, clinical isolate 942751): 28 ± 2.5 nM | IC50 ([3]; Human immunodeficiency virus 1, read-out: IC50 viral production, PBLs, clinical isolate BAKI (SI)): 20 ± 6 nM | IC50 ([3]; Human immunodeficiency virus 1, read-out: IC50 viral production, PBLs, clinical isolate BLCH (NSI)): 22 ± 0.8 nM | IC50 ([3]; Human immunodeficiency virus 1, read-out: IC50 viral production, PBLs, clinical isolate JOGA (NSI)): > 1000 nM | IC50 ([3]; Human immunodeficiency virus 1, read-out: IC50 viral production, PBLs, clinical isolate N. Amer. #1): 10 ± 4 nM | IC50 ([3]; Human immunodeficiency virus 1, read-out: IC50 viral production, PBLs, clinical isolate N. Amer. #2): 1650 ± 7 nM | IC50 ([3]; Human immunodeficiency virus 1, read-out: IC50 viral production, PBLs, clinical isolate ROJO (SI)): 52 ± 0.4 nM | IC50 ([3]; Human immunodeficiency virus 1, read-out: IC50 viral production, PBLs, clinical isolate S. E. Asia): 60 ± 5 nM | IC50 ([3]; Human immunodeficiency virus 1, read-out: IC50 viral production, PBLs, clinical isolate VIHU (NSI)): 36 ± 0.7 nM | IC50 ([3]; Human immunodeficiency virus 1, read-out: IC50 viral production, PBLs, clinical isolate WEJO (SI)): 17 ± 0.1 nM | IC50 ([3]; Human immunodeficiency virus 1, read-out: IC50 viral production, PBLs, clinical isolate WOME (SI)): 25 ± 0.3 nM | delay of drug addition post-infection at which inhibitory effect is lost [4]: 3 or 4 hours post-infection | % CD4 ([5]; IIIB, drug 0.1 μM, day 7): 31% | % CD8 ([5]; IIIB, drug 0.1 μM, day 7): 79% | % CD4 ([5]; IIIB, drug 1.0 μM): 30% | % CD8 ([5]; IIIB, drug 1.0 μM): 81% | % CD4 ([5]; IIIB, drug 5.0 μM): 27% | % CD8 ([5]; IIIB, drug 5.0 μM): 86% | % CD4 ([5]; MN, drug 0.1 μM): 25% | % CD8 ([5]; MN, drug 0.1 μM): 82% | % CD4 ([5]; MN, drug 1.0 μM): 35% | % CD8 ([5]; MN, drug 1.0 μM): 79% | % CD4 ([5]; MN, drug 5.0 μM): 36% | % CD8 ([5]; MN, drug 5.0 μM): 78% | % CD4 ([5]; N. Amer. #1, drug 0.1 μM): 25% | % CD8 ([5]; N. Amer. #1, drug 0.1 μM): 83% | % CD4 ([5]; N. Amer. #1, drug 1.0 μM): 25% | % CD8 ([5]; N. Amer. #1, drug 1.0 μM): 84% | % CD4 ([5]; N. Amer. #1, drug 5.0 μM): 26% | % CD8 ([5]; N. Amer. #1, drug 5.0 μM): 85% | % CD4 ([5]; N. Amer. #2, drug 0.1 μM): 6% | % CD8 ([5]; N. Amer. #2, drug 0.1 μM): 95% | % CD4 ([5]; N. Amer. #2, drug 1.0 μM): 13% | % CD8 ([5]; N. Amer. #2, drug 1.0 μM): 89% | % CD4 ([5]; N. Amer. #2, drug 5.0 μM): 25% | % CD8 ([5]; N. Amer. #2, drug 5.0 μM): 85% | % CD4 ([5]; RF, drug 0.1 μM): 23% | % CD8 ([5]; RF, drug 0.1 μM): 84% | % CD4 ([5]; RF, drug 1.0 μM): 32% | % CD8 ([5]; RF, drug 1.0 μM): 76% | % CD4 ([5]; RF, drug 5.0 μM): 34% | % CD8 ([5]; RF, drug 5.0 μM): 81% | % CD4 ([5]; SE Asia isolate, drug 0.1 μM): 29% | % CD8 ([5]; SE Asia isolate, drug 0.1 μM): 82% | % CD4 ([5]; SE Asia isolate, drug 1.0 μM): 31% | % CD8 ([5]; SE Asia isolate, drug 1.0 μM): 82% | % CD4 ([5]; SE Asia isolate, drug 5.0 μM): 29% | % CD8 ([5]; SE Asia isolate, drug 5.0 μM): 86%

Reference: patent US6355785B1, “Guanosine-rich oligonucleotide integrase inhibitors” (Aronex Pharmaceuticals, Inc., priority 1993, dated 2002)
